Assay results as given in PubChem BioAssay AID1919005 (Molecular Pharmacology Branch, DTP, NCI, 2023).
Where “and” joins values, the source holds several entries; their conditions need not be identical. Identical values can stand only once.

Test system: 855422-203-R-J1-PDC complex spheroid growth
Test: Anticancer human tumor 855422-203-R-J1-PDC patient-derived bladder carcinoma cell line growth inhibition [AhR]
Conditions: for viability, T/C: stronger effect = lower value; active means viability on the fitted dose curve at most 10% of control; inactive means the rest
Procedure, shortened: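 Complex tumor spheroids co-cultured with HUVEC and human MSC stroma; AhR antagonists tested in combination with standard-of-care and investigational agents. Top concentration at or near clinical Cmax (else 10 microM), half-log dilutions; growth expressed as percent test/control.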

[1] = curve of first compound, second compound 0.1 µM
[2] = curve of first compound, second compound 0.316 µM
[3] = curve of first compound, second compound 1 µM
[4] = curve of first compound, second compound 3.16 µM
[5] = curve of first compound, second compound 10 µM
[6] = second compound 0.1 µM, first compound 0.0316 µM
[7] = second compound 0.1 µM, first compound 0.1 µM
[8] = second compound 0.316 µM, first compound 0.0316 µM
[9] = second compound 0.316 µM, first compound 0.1 µM
[10] = second compound 1 µM, first compound 0.0316 µM
[11] = second compound 1 µM, first compound 0.1 µM
[12] = second compound 3.16 µM, first compound 0.0316 µM
[13] = second compound 3.16 µM, first compound 0.1 µM
[14] = second compound 10 µM, first compound 0.0316 µM
[15] = second compound 10 µM, first compound 0.1 µM
[16] = second compound 0.1 µM, first compound 0.00949 µM
[17] = second compound 0.1 µM, first compound 0.03 µM
[18] = second compound 0.1 µM, first compound 0.0949 µM
[19] = second compound 0.1 µM, first compound 0.3 µM
[20] = second compound 0.316 µM, first compound 0.00949 µM
[21] = second compound 0.316 µM, first compound 0.03 µM
[22] = second compound 0.316 µM, first compound 0.0949 µM
[23] = second compound 0.316 µM, first compound 0.3 µM
[24] = second compound 1 µM, first compound 0.00949 µM
[25] = second compound 1 µM, first compound 0.03 µM
[26] = second compound 1 µM, first compound 0.0949 µM
[27] = second compound 1 µM, first compound 0.3 µM
[28] = second compound 3.16 µM, first compound 0.00949 µM
[29] = second compound 3.16 µM, first compound 0.03 µM
[30] = second compound 3.16 µM, first compound 0.0949 µM
[31] = second compound 3.16 µM, first compound 0.3 µM
[32] = second compound 10 µM, first compound 0.00949 µM
[33] = second compound 10 µM, first compound 0.03 µM
[34] = second compound 10 µM, first compound 0.0949 µM
[35] = second compound 10 µM, first compound 0.3 µM
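Further: spheroids exposed to agents for seven days before readout.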
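Wherever viability, T/C is given: percent of DMSO vehicle control luminescence viability.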

CC[C@@]1(O)C(=O)OCc2c1cc1n(c2=O)Cc2cc3c(CN(C)C)c(O)ccc3nc2-1 + Cc1ccccc1N=Nc1ccc(NC(=O)c2ccnn2C)c(C)c1
30.5 nM: IC50 [5]
31.9 nM: IC50 [4]
inactive: viability, T/C (second compound 0.1 µM, first compound 0.000316 µM) 104% | viability, T/C (second compound 0.1 µM, first compound 0.001 µM) 103% | viability, T/C (second compound 0.1 µM, first compound 0.00316 µM) 106% | viability, T/C (second compound 0.1 µM, first compound 0.01 µM) 97.9% | viability, T/C [6] 90.4% | viability, T/C [7] 43.7% | viability, T/C (second compound 0.316 µM, first compound 0.000316 µM) 96.7% | viability, T/C (second compound 0.316 µM, first compound 0.001 µM) 101% | viability, T/C (second compound 0.316 µM, first compound 0.00316 µM) 94.1% | viability, T/C (second compound 0.316 µM, first compound 0.01 µM) 97.2% | viability, T/C [8] 77.8% | viability, T/C [9] 33.5% | viability, T/C (second compound 1 µM, first compound 0.000316 µM) 110% | viability, T/C (second compound 1 µM, first compound 0.001 µM) 98.3% | viability, T/C (second compound 1 µM, first compound 0.00316 µM) 95.2% | viability, T/C (second compound 1 µM, first compound 0.01 µM) 98.7% | viability, T/C [10] 74.7% | viability, T/C [11] 31.9% | viability, T/C (second compound 3.16 µM, first compound 0.000316 µM) 97.4% | viability, T/C (second compound 3.16 µM, first compound 0.001 µM) 96.4% | viability, T/C (second compound 3.16 µM, first compound 0.00316 µM) 89.3% | viability, T/C (second compound 3.16 µM, first compound 0.01 µM) 87.1% | viability, T/C [12] 49.9% | viability, T/C [13] 30.8% | viability, T/C (second compound 10 µM, first compound 0.000316 µM) 88.1% | viability, T/C (second compound 10 µM, first compound 0.001 µM) 81.7% | viability, T/C (second compound 10 µM, first compound 0.00316 µM) 87.6% | viability, T/C (second compound 10 µM, first compound 0.01 µM) 86.9% | viability, T/C [14] 48.7% | viability, T/C [15] 29.7%
65.1 nM: IC50 [2]
86.1 nM: IC50 [1]
62 nM: IC50 [3]

Nc1ncn(C2CC(O)C(CO)S2)c(=O)n1 (centres undefined) + CC(CO)NC(=O)c1cc(-c2ccc(Cl)cc2)nn(-c2cnn(C)c2)c1=O
> 300 nM: IC50 [1] | IC50 [2] | IC50 [3] | IC50 [4] | IC50 [5]
inactive: viability, T/C (second compound 0.1 µM, first compound 0.000949 µM) 91.9% | viability, T/C (second compound 0.1 µM, first compound 0.003 µM) 90.2% | viability, T/C [16] 88.3% | viability, T/C [17] 93.4% | viability, T/C [18] 96.7% | viability, T/C [19] 87.4% | viability, T/C (second compound 0.316 µM, first compound 0.000949 µM) 97.3% | viability, T/C (second compound 0.316 µM, first compound 0.003 µM) 93.3% | viability, T/C [20] 99.4% | viability, T/C [21] 95.2% | viability, T/C [22] 87.6% | viability, T/C [23] 82.2% | viability, T/C (second compound 1 µM, first compound 0.000949 µM) 99.9% | viability, T/C (second compound 1 µM, first compound 0.003 µM) 90.9% | viability, T/C [24] 101% | viability, T/C [25] 92.1% | viability, T/C [26] 101% | viability, T/C [27] 86.7% | viability, T/C (second compound 3.16 µM, first compound 0.000949 µM) 91.8% | viability, T/C (second compound 3.16 µM, first compound 0.003 µM) 94.5% | viability, T/C [28] 85.3% | viability, T/C [29] 101% | viability, T/C [30] 90.9% | viability, T/C [31] 80.4% | viability, T/C (second compound 10 µM, first compound 0.000949 µM) 92.5% | viability, T/C (second compound 10 µM, first compound 0.003 µM) 98% | viability, T/C [32] 87.3% | viability, T/C [33] 93.5% | viability, T/C [34] 89.8% | viability, T/C [35] 80.3%

O=C(C=Cn1cnc(-c2cc(C(F)(F)F)cc(C(F)(F)F)c2)n1)NNc1cnccn1 + Cc1ccccc1N=Nc1ccc(NC(=O)c2ccnn2C)c(C)c1
706 nM: IC50 [4]
726 nM: IC50 [5]
> 3000 nM: IC50 [1] | IC50 [2] | IC50 [3]
inactive: viability, T/C [16] 108% | viability, T/C [17] 113% | viability, T/C [18] 143% | viability, T/C [19] 93.1% | viability, T/C (second compound 0.1 µM, first compound 0.949 µM) 53.9% | viability, T/C (second compound 0.1 µM, first compound 3 µM) 50.1% | viability, T/C [20] 109% | viability, T/C [21] 118% | viability, T/C [22] 151% | viability, T/C [23] 83.7% | viability, T/C (second compound 0.316 µM, first compound 0.949 µM) 57.6% | viability, T/C (second compound 0.316 µM, first compound 3 µM) 48% | viability, T/C [24] 109% | viability, T/C [25] 136% | viability, T/C [26] 179% | viability, T/C [27] 78.5% | viability, T/C (second compound 1 µM, first compound 0.949 µM) 54.2% | viability, T/C (second compound 1 µM, first compound 3 µM) 48% | viability, T/C [28] 111% | viability, T/C [29] 107% | viability, T/C [30] 154% | viability, T/C [31] 69.8% | viability, T/C (second compound 3.16 µM, first compound 0.949 µM) 48.5% | viability, T/C (second compound 3.16 µM, first compound 3 µM) 37.8% | viability, T/C [32] 85.8% | viability, T/C [33] 101% | viability, T/C [34] 112% | viability, T/C [35] 58.2% | viability, T/C (second compound 10 µM, first compound 0.949 µM) 49.8% | viability, T/C (second compound 10 µM, first compound 3 µM) 45.4%

Nc1ccn(C2OC(CO)C(O)C2(F)F)c(=O)n1 (centres undefined)
55 nM and 212 nM and 290 nM: IC50 (curve of compound)
inactive: viability, T/C (compound 0.0316 µM) 73.2% and 108% and 116% | viability, T/C (compound 0.1 µM) 24.6% and 89.1% and 98.4% | viability, T/C (compound 0.316 µM) 14.1% and 28.8% and 44% | viability, T/C (compound 1 µM) 15.1% and 17.2% and 34.1% | viability, T/C (compound 3.16 µM) 11.1% and 14.4% and 27.2% | viability, T/C (compound 10 µM) 7.1% and 9.36% and 17.2%

COc1cc(Nc2ncc3c(n2)-c2ccc(Cl)cc2C(c2c(F)cccc2OC)=NC3)ccc1C(=O)O + Cc1cncc(-c2nc(NCCc3c[nH]c4ccccc34)c3ncn(C(C)C)c3n2)c1
> 10000 nM: IC50 [1] | IC50 [2]
< 31.6 nM: IC50 [5]
995 nM: IC50 [4]
987 nM: IC50 [3]
inactive: viability, T/C [6] 104% | viability, T/C [7] 101% | viability, T/C (second compound 0.1 µM, first compound 0.316 µM) 61.5% | viability, T/C (second compound 0.1 µM, first compound 1 µM) 55% | viability, T/C (second compound 0.1 µM, first compound 3.16 µM) 50.6% | viability, T/C (second compound 0.1 µM, first compound 10 µM) 45.4% | viability, T/C [8] 98.7% | viability, T/C [9] 94.8% | viability, T/C (second compound 0.316 µM, first compound 0.316 µM) 61.4% | viability, T/C (second compound 0.316 µM, first compound 1 µM) 52.4% | viability, T/C (second compound 0.316 µM, first compound 3.16 µM) 52.5% | viability, T/C (second compound 0.316 µM, first compound 10 µM) 50.7% | viability, T/C [10] 99% | viability, T/C [11] 90.5% | viability, T/C (second compound 1 µM, first compound 0.316 µM) 63.2% | viability, T/C (second compound 1 µM, first compound 1 µM) 49.3% | viability, T/C (second compound 1 µM, first compound 3.16 µM) 48.6% | viability, T/C (second compound 1 µM, first compound 10 µM) 48.2% | viability, T/C [12] 82.8% | viability, T/C [13] 75.9% | viability, T/C (second compound 3.16 µM, first compound 0.316 µM) 59.7% | viability, T/C (second compound 3.16 µM, first compound 1 µM) 48.6% | viability, T/C (second compound 3.16 µM, first compound 3.16 µM) 52.2% | viability, T/C (second compound 3.16 µM, first compound 10 µM) 44.8% | viability, T/C [14] 27.9% | viability, T/C [15] 26.7% | viability, T/C (second compound 10 µM, first compound 0.316 µM) 14.8% | viability, T/C (second compound 10 µM, first compound 1 µM) 11.4% | viability, T/C (second compound 10 µM, first compound 3.16 µM) 22.5% | viability, T/C (second compound 10 µM, first compound 10 µM) 26.4%

Nc1ccccc1NC(=O)c1ccc(CNC(=O)OCc2cccnc2)cc1
5.42% and 27.3% and 14.9%: viability, T/C (compound 10 µM)
inactive: viability, T/C (compound 0.0316 µM) 86.3% and 105% and 90.3% | viability, T/C (compound 0.1 µM) 87.8% and 108% and 86.7% | viability, T/C (compound 0.316 µM) 82.7% and 108% and 84.8% | viability, T/C (compound 1 µM) 82.7% and 109% and 97.4% | viability, T/C (compound 3.16 µM) 46.1% and 85.7% and 68.4%
2800 nM and 6390 nM and 4690 nM: IC50 (curve of compound)
